This note sets out measurements from patent US20120122848A1, “(+)-3-HYDROXYMORPHINAN DERIVATIVES AS NEUROPROTECTANTS” (GREEN CROSS CORPORATION, priority 2009, published 2012).

Data set [1] relates to HT22 cells (mouse hippocampal neuron). As to the kind of experiment: Cell cytotoxicity test: protection of HT22 cells against glutamate toxicity (EC50) and cytotoxicity of the compounds (CC50), MTT. In kind it is cell-based. Conditions: Mus musculus, HT-22, five millimolar glutamate, 24 hrs, read-out: EC50 (neuroprotective effect against glutamate toxicity). As for the experimental part: (§1) HT22 cells (mouse hippocampal neuron, Salk Institute and KRIBB) were plated in a 96-well plate at a density of 3×10^3 cells/well for 16 hrs before treatment. The cells were treated with five millimolar glutamate and various concentrations of the inventive compounds and incubated for 24 hrs in a growth media (DMEM with 10% FBS and 1% penicillin streptomycin). Then, the cells were treated with 3-(4,5-dimethylthiazol-2-yl)-2,5-diphenyltetrazolium bromide (MTT, Sigma®) for 4 hrs and absorbance of each well was measured with a plate reader at a wavelength of 450 nm. [Da-Qing, et. al., Anti-oxidant and anti-inflammatory activities of macelignan in murine hippocampal cell line and primary culture of rat microglia cells, BBRC, 2005, 331, 1264-1269].
(§2) In Table 1, EC50 is neuroprotective effect against glutamate toxicity and CC50 is cytotoxicity of the compounds. The EC50 values were statistically analyzed using Prizm® (GraphPad Software Inc., San Diego, Calif., USA).

Assay in data set [2]: as above
In kind it is cell-based, mouse. Conditions: mouse, HT22 cells (mouse hippocampal neuron). The protocol:
as §1, §2

Counter-ions that a name gives are not always drawn.

A word on the EC50: it is the concentration that produces a half-maximal response. With `Oc1cc2c(cc1F)C[C@@H]1NCC[C@]23CCCC[C@H]13` [Example 1, (+)-2-Fluoro-3-hydroxymorphinan TFA salt], the EC50 in data set [1] stood at 9.68 µM.

For the compound `Oc1c(F)cc2c(c1Cl)[C@]13CCCC[C@@H]1[C@H](C2)NCC3` [Example 2, (+)-4-Chloro-2-fluoro-3-hydroxymorphinan TFA salt], in data set [1], the half-maximal effective concentration (EC50) was 50 µM.

On to `Oc1c(F)cc2c(c1Br)[C@]13CCCC[C@@H]1[C@H](C2)NCC3` [Example 3, (+)-4-Bromo-2-fluoro-3-hydroxymorphinan TFA salt], for which the concentration for a half-maximal effect (EC50) in data set [1] came to 19.8 µM.

Take `Oc1c(Cl)cc2c(c1Cl)[C@]13CCCC[C@@H]1[C@H](C2)NCC3` [Example 4, (+)-2,4-Dichloro-3-hydroxymorphinan TFA salt]: in data set [1], the 50% effective concentration (EC50) is 10.9 µM.

With `Oc1ccc2c(c1Cl)[C@]13CCCC[C@@H]1[C@H](C2)NCC3` [Example 5, (+)-4-Chloro-3-hydroxymorphinan TFA salt], the EC50 in data set [1] was found to be 9.33 µM.

Consider `Oc1c(Br)cc2c(c1Br)[C@]13CCCC[C@@H]1[C@H](C2)NCC3` [Example 6, (+)-2,4-Dibromo-3-hydroxymorphinan TFA salt], for which the EC50 in data set [1] turned out to be 9.57 µM.

In the case of `Oc1ccc2c(c1Br)[C@]13CCCC[C@@H]1[C@H](C2)NCC3` [Example 7, (+)-4-Bromo-3-hydroxymorphinan TFA salt], the concentration giving a half-maximal response (EC50) in data set [1] worked out at 12.5 µM.

On to `Oc1c(Cl)cc2c(c1Br)[C@]13CCCC[C@@H]1[C@H](C2)NCC3` [Example 8, (+)-4-Bromo-2-chloro-3-hydroxymorphinan TFA salt], for which the concentration for a half-maximal effect (EC50) in data set [1] came to 20.2 µM.

As for `Oc1cc2c(cc1I)C[C@@H]1NCC[C@]23CCCC[C@H]13` [Example 9, (+)-3-Hydroxy-2-iodomorphinan TFA salt], the concentration giving a half-maximal response (EC50) in data set [1] amounted to 10.2 µM.

With `Oc1cc2c(cc1O)[C@]13CCCC[C@@H]1[C@H](C2)NCC3` [Example 10, (+)-2,3-Dihydroxymorphinan TFA salt], the EC50 in data set [1] was found to be 12.1 µM.

Take `COc1cc2c(cc1O)[C@]13CCCC[C@@H]1[C@H](C2)NCC3` [Example 12, (+)-3-Hydroxy-2-methoxymorphinan TFA salt]: the concentration for a half-maximal effect (EC50) in data set [1] came to 24.4 µM.

In the case of `O=Cc1cc2c(cc1O)[C@]13CCCC[C@@H]1[C@H](C2)NCC3` [Example 13, (+)-2-Formyl-3-hydroxymorphinan TFA salt], the EC50 in data set [1] stood at 11.6 µM.

For `O=C(O)c1cc2c(cc1O)[C@]13CCCC[C@@H]1[C@H](C2)NCC3` [Example 14, ((+)-3-Hydroxymorphinan)-2-carboxylic acid TFA salt], in data set [1], the concentration for a half-maximal effect (EC50) is 86.3 µM.

In the case of `OCc1cc2c(cc1O)[C@]13CCCC[C@@H]1[C@H](C2)NCC3` [Example 16, (+)-3-Hydroxy-2-(hydroxymethyl)morphinan TFA salt], the EC50 in data set [1] is greater than 100 µM.

In general, CC50 refers to the concentration giving 50% cytotoxicity. As for `Oc1cc2c(cc1N1CCCCCC1)C[C@@H]1NCC[C@]23CCCC[C@H]13` [Example 17, (+)-2-(Azepan-1-yl)-3-hydroxymorphinan TFA salt], in data set [1], the EC50 was 0.579 µM. For the same compound, the CC50 at 24 h in data set [2] turned out to be 12.2 µM.

For `CNc1cc2c(cc1O)[C@]13CCCC[C@@H]1[C@H](C2)NCC3` [Example 18, (+)-3-Hydroxy-2-(methylamino)morphinan TFA salt], the EC50 in data set [1] was determined as 0.193 µM. Moreover, the 50% cytotoxic concentration (CC50) at 24 h in data set [2] came out at 59 µM.

`CC1CCN(c2cc3c(cc2O)[C@]24CCCC[C@@H]2[C@H](C3)NCC4)CC1` [Example 19, (+)-3-Hydroxy-2-(4-methylpiperidin-1-yl)morphinan TFA salt]: in data set [1], the half-maximal effective concentration (EC50) stood at 0.272 µM. Moreover, the CC50 at 24 h in data set [2] was determined as 8.04 µM.

Regarding `CC(C)(C)Nc1cc2c(cc1O)[C@]13CCCC[C@@H]1[C@H](C2)NCC3` [Example 20, (+)-2-(tert-Butylamino)-3-hydroxymorphinan TFA salt], the EC50 in data set [1] was 0.423 µM. The same compound yielded a CC50 at 24 h in data set [2] greater than 100 µM.

On to `Oc1cc2c(cc1N1CCCCC1)C[C@@H]1NCC[C@]23CCCC[C@H]13` [Example 21, (+)-3-Hydroxy-2-(piperidin-1-yl)morphinan TFA salt], for which, in data set [1], the EC50 turned out to be 0.482 µM. Further, half-maximal cytotoxicity in data set [2] (CC50 at 24 h) was put at 63.5 µM.

For `Oc1cc2c(cc1N1CCCC1)C[C@@H]1NCC[C@]23CCCC[C@H]13` [Example 22, (+)-3-Hydroxy-2-(pyrrolidin-1-yl)morphinan TFA salt], the half-maximal effective concentration (EC50) in data set [1] amounted to 0.638 µM. This compound came in with a CC50 at 24 h in data set [2] of 80.5 µM.

In the case of `CCNc1cc2c(cc1O)[C@]13CCCC[C@@H]1[C@H](C2)NCC3` [Example 23, (+)-2-Ethylamino-3-hydroxymorphinan TFA salt], the EC50 in data set [1] was found to be 1.1 µM. Also, half-maximal cytotoxicity in data set [2] (CC50 at 24 h) was put at 49.1 µM.

`CN1CCN(c2cc3c(cc2O)[C@]24CCCC[C@@H]2[C@H](C3)NCC4)CC1` [Example 24, (+)-3-Hydroxy-2-(4-methylpiperazin-1-yl)morphinan 2TFA salt]: in data set [1], the concentration for a half-maximal effect (EC50) is 3.1 µM. Also, in data set [2], half-maximal cytotoxicity (CC50 at 24 h) was put at 14.4 µM.

`Oc1cc2c(cc1Nc1ccc(Cl)cc1)C[C@@H]1NCC[C@]23CCCC[C@H]13` [Example 25, (+)-2-(4-Chlorophenylamino)-3-hydroxymorphinan TFA salt]: the EC50 in data set [1] was determined as 0.061 µM. In data set [2], this compound gave a 50% cytotoxic concentration (CC50) at 24 h of 1.87 µM.

For the compound `Cc1cc(C)cc(Nc2cc3c(cc2O)[C@]24CCCC[C@@H]2[C@H](C3)NCC4)c1` [Example 27, (+)-2-(3,5-Dimethylphenylamino)-3-hydroxymorphinan TFA salt], in data set [1], the EC50 was determined as 0.0273 µM. The compound also displayed a CC50 at 24 h in data set [2] of 1.52 µM.

`Cc1ccc(Nc2cc3c(cc2O)[C@]24CCCC[C@@H]2[C@H](C3)NCC4)cc1` [Example 28, (+)-3-Hydroxy-2-(4-methylphenylamino)morphinan TFA salt]: the EC50 in data set [1] came to 0.0325 µM. The same compound registered a half-maximal cytotoxic concentration (CC50) at 24 h in data set [2] of 1.84 µM.

Regarding `Oc1cc2c(cc1Nc1ccc(F)cc1)C[C@@H]1NCC[C@]23CCCC[C@H]13` [Example 29, (+)-2-(4-Fluorophenylamino)-3-hydroxymorphinan TFA salt], the EC50 in data set [1] was determined as 0.0335 µM. The compound further gave a CC50 at 24 h in data set [2] of 19.9 µM.

Turning to `Oc1cc2c(cc1Nc1ccccc1)C[C@@H]1NCC[C@]23CCCC[C@H]13` [Example 30, (+)-3-Hydroxy-2-(phenylamino)morphinan TFA salt], in data set [1], the half-maximal effective concentration (EC50) worked out at 0.0358 µM. In data set [2], this compound registered a cytotoxic concentration (CC50) at 24 h of 7.79 µM.

With `COc1ccc(Nc2cc3c(cc2O)[C@]24CCCC[C@@H]2[C@H](C3)NCC4)cc1` [Example 31, (+)-3-Hydroxy-2-(4-methoxyphenylamino)morphinan TFA salt], the half-maximal effective concentration (EC50) in data set [1] was 0.0404 µM. Moreover, the midpoint of cytotoxicity in data set [2], the CC50 at 24 h, lay at 7.5 µM.

Turning to `Nc1ccc(Nc2cc3c(cc2O)[C@]24CCCC[C@@H]2[C@H](C3)NCC4)cc1` [Example 32, (+)-2-(4-Aminophenyamino)-3-hydroxymorphinan TFA salt], the concentration giving a half-maximal response (EC50) in data set [1] is 0.0431 µM. This compound showed a CC50 at 24 h in data set [2] of 14.1 µM.

For the compound `Oc1cc2c(cc1Nc1ccc(Br)cc1)C[C@@H]1NCC[C@]23CCCC[C@H]13` [Example 33, (+)-2-(4-Bromophenylamino)-3-hydroxymorphinan TFA salt], the EC50 in data set [1] was found to be 0.0697 µM. The same compound registered a CC50 at 24 h in data set [2] of 1.67 µM.

As for `Oc1cc2c(cc1Nc1ccccn1)C[C@@H]1NCC[C@]23CCCC[C@H]13` [Example 34, (+)-3-Hydroxy-2-(pyridin-2-ylamino)morphinan 2TFA salt], the half-maximal effective concentration (EC50) in data set [1] was determined as 2.34 µM. Moreover, the CC50 at 24 h in data set [2] is 41.5 µM.

Consider `Oc1cc2c(cc1Nc1ccc(C(F)(F)F)cc1)C[C@@H]1NCC[C@]23CCCC[C@H]13` [Example 35, (+)-3-Hydroxy-2-(4-(trifluoromethyl)phenylamino)morphinan TFA salt], for which, in data set [1], the EC50 came out at 2.59 µM. For the same compound, the midpoint of cytotoxicity in data set [2], the CC50 at 24 h, lay at 52.8 µM.

`Oc1cc2c(cc1Nc1ccc3c(c1)OCO3)C[C@@H]1NCC[C@]23CCCC[C@H]13` [Example 36, (+)-3-Hydroxy-2-((3,4-methylendioxy)phenylamino)morphinan TFA salt]: the EC50 in data set [1] worked out at 0.301 µM. In data set [2], this compound gave a CC50 at 24 h of 84.5 µM.

As to `Oc1cc2c(cc1Nc1ccc3c(c1)OCCO3)C[C@@H]1NCC[C@]23CCCC[C@H]13` [Example 37, (+)-2((3,4-Ethylenedioxy)phenylamino)-3-hydroxymorphinan TFA salt], the 50% effective concentration (EC50) in data set [1] came to 0.14 µM. This compound showed a cytotoxic concentration (CC50) at 24 h in data set [2] of 14.2 µM.

For the compound `Oc1cc2c(cc1-c1ccc(Cl)cc1)C[C@@H]1NCC[C@]23CCCC[C@H]13` [Example 74, (+)-2-(4-Chlorophenol)-3-hydroxymorphinan TFA salt], the EC50 in data set [1] worked out at 0.796 µM.

For `Oc1cc2c(cc1-c1ccccc1)C[C@@H]1NCC[C@]23CCCC[C@H]13` [Example 80, (+)-3-Hydroxy-2-phenylmorphinan TFA salt], the concentration for a half-maximal effect (EC50) in data set [1] was 9.1 µM.

On to `CCc1cc2c(cc1O)[C@]13CCCC[C@@H]1[C@H](C2)NCC3` [Example 84, (+)-2-Ethyl-3-hydroxymorphinan TFA salt], for which the EC50 in data set [1] was found to be 6.71 µM.

Regarding `Cc1cc2c(cc1O)[C@]13CCCC[C@@H]1[C@H](C2)NCC3` [Example 85, (+)-3-Hydroxy-2-methylmorphinan TFA salt], the EC50 in data set [1] is 8.39 µM.

Take `CCCCOC(=O)Nc1ccccc1Nc1cc2c(cc1O)[C@]13CCCC[C@@H]1[C@H](C2)NCC3` [Example 118, (+)-2-(2-(Butoxycarbonylamino)phenylamino)-3-hydroxymorphinan TFA salt]: the concentration giving a half-maximal response (EC50) in data set [1] was determined as 0.891 µM.

Regarding `CCCCNC(=S)Nc1ccccc1Nc1cc2c(cc1O)[C@]13CCCC[C@@H]1[C@H](C2)NCC3` [Example 123, (+)-2-(2-(Butylthioureido)phenylamino)-3-hydroxymorphinan TFA salt], the EC50 in data set [1] was found to be 0.459 µM.
